{"source": "patent US12077503B2", "about": "“Substituted cyclic amides and their use as herbicides” (FMC CORPORATION, priority 2015, dated 2024)", "assay_in_all_cases": "Test C preemergence", "format_in_all_cases": "in vivo", "key": {"[1]": {"system": "barnyardgrass (Echinochloa crus-galli)", "conditions": "for Plant response rating, Barnyardgrass: scale 0 to 100, 0 no effect, 100 complete control", "procedure,_shortened": "(§1)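 Herbicidal effect, applied preemergence to sown seeds or postemergence to 1- to 4-leaf plants, was scored visually 13 to 15 d after application, 0 to 100 versus controls.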"}, "[2]": {"system": "oilseed rape (Brassica napus)", "conditions": "for Plant response rating, Oilseed Rape: scale 0 to 100, 0 no effect, 100 complete control", "procedure,_shortened": "as §1"}, "[3]": {"system": "velvetleaf (Abutilon theophrasti)", "conditions": "for Plant response rating, Velvetleaf: scale 0 to 100, 0 no effect, 100 complete control", "procedure,_shortened": "as §1"}, "[4]": {"system": "crabgrass, large (large crabgrass, Digitaria sanguinalis)", "conditions": "for Plant response rating, Crabgrass, Large: scale 0 to 100, 0 no effect, 100 complete control", "procedure,_shortened": "as §1"}, "soybean (Glycine max)": {"system": "soybean (Glycine max)", "conditions": "for Plant response rating, Soybean: scale 0 to 100, 0 no effect, 100 complete control", "procedure,_shortened": "as §1"}, "corn (Zea mays)": {"system": "corn (Zea mays)", "conditions": "for Plant response rating, Corn: scale 0 to 100, 0 no effect, 100 complete control", "procedure,_shortened": "as §1"}, "[5]": {"system": "Galium (catchweed bedstraw, Galium aparine)", "conditions": "for Plant response rating, Galium: scale 0 to 100, 0 no effect, 100 complete control", "procedure,_shortened": "as §1"}, "[6]": {"system": "johnsongrass (Sorghum halepense)", "conditions": "for Plant response rating, Johnsongrass: scale 0 to 100, 0 no effect, 100 complete control", "procedure,_shortened": "as §1"}, "[7]": {"system": "lambsquarters (Chenopodium album)", "conditions": "for Plant response rating, Lambsquarters: scale 0 to 100, 0 no effect, 100 complete control", "procedure,_shortened": "as §1"}, "[8]": {"system": "wheat (winter wheat, Triticum aestivum)", "conditions": "for Plant response rating, Wheat: scale 0 to 100, 0 no effect, 100 complete control", "procedure,_shortened": "as §1"}, "[9]": {"system": "morningglory (Ipomoea coccinea)", "conditions": "for Plant response rating, Morningglory: scale 0 to 100, 0 no effect, 100 complete control", "procedure,_shortened": "as §1"}, "[10]": {"system": "ragweed (common ragweed, Ambrosia elatior)", "conditions": "for Plant response rating, Ragweed: scale 0 to 100, 0 no effect, 100 complete control", "procedure,_shortened": "as §1"}, "[11]": {"system": "waterhemp (common waterhemp, Amaranthus rudis)", "conditions": "for Plant response rating, Waterhemp: scale 0 to 100, 0 no effect, 100 complete control", "procedure,_shortened": "as §1"}, "[12]": {"system": "blackgrass (Alopecurus myosuroides)", "conditions": "for Plant response rating, Blackgrass: scale 0 to 100, 0 no effect, 100 complete control", "procedure,_shortened": "as §1"}, "[13]": {"system": "ryegrass, Italian (Italian ryegrass, Lolium multiflorum)", "conditions": "for Plant response rating, Ryegrass, Italian: scale 0 to 100, 0 no effect, 100 complete control", "procedure,_shortened": "as §1"}, "[14]": {"system": "foxtail, giant (giant foxtail, Setaria faberii)", "conditions": "for Plant response rating, Foxtail, Giant: scale 0 to 100, 0 no effect, 100 complete control", "procedure,_shortened": "as §1"}, "[15]": {"system": "pigweed (Amaranthus retroflexus)", "conditions": "for Plant response rating, Pigweed: scale 0 to 100, 0 no effect, 100 complete control", "procedure,_shortened": "as §1"}, "[16]": {"system": "nutsedge, yellow (yellow nutsedge, Cyperus esculentus)", "conditions": "for Plant response rating, Nutsedge, Yellow: scale 0 to 100, 0 no effect, 100 complete control", "procedure,_shortened": "as §1"}, "[17]": {"conditions": "31 g ai/ha, 0 is no effect, 100 is complete control"}}, "data": [{"smiles": "O=C1NCC(c2cccc(C(F)(F)F)c2F)C1C(=O)Nc1cccc(F)c1F", "note": "(stereo not drawn) [Compound 591]", "values": [{"measurement": "Plant response rating (scale of 0 to 100), Barnyardgrass", "setting": "[1]; [17]", "result": 90}, {"measurement": "Plant response rating, Barnyardgrass", "setting": "[1]; 62 g ai/ha", "result": 90}, {"measurement": "Plant response rating, Barnyardgrass", "setting": "[1]; 125 g ai/ha", "result": 95}, {"measurement": "Plant response rating, Barnyardgrass", "setting": "[1]; 250 g ai/ha", "result": 95}, {"measurement": "Plant response rating (scale of 0 to 100), Oilseed Rape", "setting": "[2]; [17]", "result": 5}, {"measurement": "Plant response rating, Oilseed Rape", "setting": "[2]; 62 g ai/ha", "result": 20}, {"measurement": "Plant response rating, Oilseed Rape", "setting": "[2]; 125 g ai/ha", "result": 30}, {"measurement": "Plant response rating, Oilseed Rape", "setting": "[2]; 250 g ai/ha", "result": 85}, {"measurement": "Plant response rating (scale of 0 to 100), Velvetleaf", "setting": "[3]; [17]", "result": 0}, {"measurement": "Plant response rating, Velvetleaf", "setting": "[3]; 62 g ai/ha", "result": 0}, {"measurement": "Plant response rating, Velvetleaf", "setting": "[3]; 125 g ai/ha", "result": 20}, {"measurement": "Plant response rating, Velvetleaf", "setting": "[3]; 250 g ai/ha", "result": 20}, {"measurement": "Plant response rating (scale of 0 to 100), Crabgrass, Large", "setting": "[4]; [17]", "result": 90}, {"measurement": "Plant response rating, Crabgrass, Large", "setting": "[4]; 62 g ai/ha", "result": 90}, {"measurement": "Plant response rating, Crabgrass, Large", "setting": "[4]; 125 g ai/ha", "result": 90}, {"measurement": "Plant response rating, Crabgrass, Large", "setting": "[4]; 250 g ai/ha", "result": 95}, {"measurement": "Plant response rating (scale of 0 to 100), Soybean", "setting": "soybean (Glycine max); [17]", "result": 0}, {"measurement": "Plant response rating, Soybean", "setting": "soybean (Glycine max); 62 g ai/ha", "result": 0}, {"measurement": "Plant response rating, Soybean", "setting": "soybean (Glycine max); 125 g ai/ha", "result": 0}, {"measurement": "Plant response rating, Soybean", "setting": "soybean (Glycine max); 250 g ai/ha", "result": 0}, {"measurement": "Plant response rating (scale of 0 to 100), Corn", "setting": "corn (Zea mays); [17]", "result": 45}, {"measurement": "Plant response rating, Corn", "setting": "corn (Zea mays); 62 g ai/ha", "result": 70}, {"measurement": "Plant response rating, Corn", "setting": "corn (Zea mays); 125 g ai/ha", "result": 60}, {"measurement": "Plant response rating, Corn", "setting": "corn (Zea mays); 250 g ai/ha", "result": 80}, {"measurement": "Plant response rating (scale of 0 to 100), Galium", "setting": "[5]; [17]", "result": 5}, {"measurement": "Plant response rating, Galium", "setting": "[5]; 62 g ai/ha", "result": 50}, {"measurement": "Plant response rating, Galium", "setting": "[5]; 125 g ai/ha", "result": 50}, {"measurement": "Plant response rating, Galium", "setting": "[5]; 250 g ai/ha", "result": 80}, {"measurement": "Plant response rating (scale of 0 to 100), Johnsongrass", "setting": "[6]; [17]", "result": 35}, {"measurement": "Plant response rating, Johnsongrass", "setting": "[6]; 62 g ai/ha", "result": 55}, {"measurement": "Plant response rating, Johnsongrass", "setting": "[6]; 125 g ai/ha", "result": 75}, {"measurement": "Plant response rating, Johnsongrass", "setting": "[6]; 250 g ai/ha", "result": 85}, {"measurement": "Plant response rating (scale of 0 to 100), Lambsquarters", "setting": "[7]; [17]", "result": 10}, {"measurement": "Plant response rating, Lambsquarters", "setting": "[7]; 62 g ai/ha", "result": 20}, {"measurement": "Plant response rating, Lambsquarters", "setting": "[7]; 125 g ai/ha", "result": 35}, {"measurement": "Plant response rating, Lambsquarters", "setting": "[7]; 250 g ai/ha", "result": 70}, {"measurement": "Plant response rating (scale of 0 to 100), Wheat", "setting": "[8]; [17]", "result": 0}, {"measurement": "Plant response rating, Wheat", "setting": "[8]; 62 g ai/ha", "result": 10}, {"measurement": "Plant response rating, Wheat", "setting": "[8]; 125 g ai/ha", "result": 30}, {"measurement": "Plant response rating, Wheat", "setting": "[8]; 250 g ai/ha", "result": 70}, {"measurement": "Plant response rating (scale of 0 to 100), Morningglory", "setting": "[9]; [17]", "result": 10}, {"measurement": "Plant response rating, Morningglory", "setting": "[9]; 62 g ai/ha", "result": 30}, {"measurement": "Plant response rating, Morningglory", "setting": "[9]; 125 g ai/ha", "result": 40}, {"measurement": "Plant response rating, Morningglory", "setting": "[9]; 250 g ai/ha", "result": 65}, {"measurement": "Plant response rating (scale of 0 to 100), Ragweed", "setting": "[10]; [17]", "result": 0}, {"measurement": "Plant response rating, Ragweed", "setting": "[10]; 62 g ai/ha", "result": 20}, {"measurement": "Plant response rating, Ragweed", "setting": "[10]; 125 g ai/ha", "result": 35}, {"measurement": "Plant response rating, Ragweed", "setting": "[10]; 250 g ai/ha", "result": 70}, {"measurement": "Plant response rating (scale of 0 to 100), Waterhemp", "setting": "[11]; [17]", "result": 5}, {"measurement": "Plant response rating, Waterhemp", "setting": "[11]; 62 g ai/ha", "result": 30}, {"measurement": "Plant response rating, Waterhemp", "setting": "[11]; 125 g ai/ha", "result": 65}, {"measurement": "Plant response rating, Waterhemp", "setting": "[11]; 250 g ai/ha", "result": 70}, {"measurement": "Plant response rating (scale of 0 to 100), Blackgrass", "setting": "[12]; [17]", "result": 30}, {"measurement": "Plant response rating, Blackgrass", "setting": "[12]; 62 g ai/ha", "result": 85}, {"measurement": "Plant response rating, Blackgrass", "setting": "[12]; 125 g ai/ha", "result": 90}, {"measurement": "Plant response rating, Blackgrass", "setting": "[12]; 250 g ai/ha", "result": 90}, {"measurement": "Plant response rating (scale of 0 to 100), Ryegrass, Italian", "setting": "[13]; [17]", "result": 0}, {"measurement": "Plant response rating, Ryegrass, Italian", "setting": "[13]; 62 g ai/ha", "result": 10}, {"measurement": "Plant response rating, Ryegrass, Italian", "setting": "[13]; 125 g ai/ha", "result": 35}, {"measurement": "Plant response rating, Ryegrass, Italian", "setting": "[13]; 250 g ai/ha", "result": 75}, {"measurement": "Plant response rating (scale of 0 to 100), Foxtail, Giant", "setting": "[14]; [17]", "result": 85}, {"measurement": "Plant response rating, Foxtail, Giant", "setting": "[14]; 62 g ai/ha", "result": 90}, {"measurement": "Plant response rating, Foxtail, Giant", "setting": "[14]; 125 g ai/ha", "result": 90}, {"measurement": "Plant response rating, Foxtail, Giant", "setting": "[14]; 250 g ai/ha", "result": 95}, {"measurement": "Plant response rating (scale of 0 to 100), Pigweed", "setting": "[15]; [17]", "result": 10}, {"measurement": "Plant response rating, Pigweed", "setting": "[15]; 62 g ai/ha", "result": 45}, {"measurement": "Plant response rating, Pigweed", "setting": "[15]; 125 g ai/ha", "result": 60}, {"measurement": "Plant response rating, Pigweed", "setting": "[15]; 250 g ai/ha", "result": 75}, {"measurement": "Plant response rating (scale of 0 to 100), Nutsedge, Yellow", "setting": "[16]; [17]", "result": 0}, {"measurement": "Plant response rating, Nutsedge, Yellow", "setting": "[16]; 62 g ai/ha", "result": 0}, {"measurement": "Plant response rating, Nutsedge, Yellow", "setting": "[16]; 125 g ai/ha", "result": 0}, {"measurement": "Plant response rating, Nutsedge, Yellow", "setting": "[16]; 250 g ai/ha", "result": 0}]}]}
